According to the supplement of paper PMC8671470:
± gives the standard deviation of the averaged measurements.

Assays:
Details in all cases: 72 h
[1] = system: KCL-22
Outline: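 The IC50 was read from log-logistic dose–response fits. Fifteen myeloid leukaemia lines were exposed for 72 h at 37 °C with 5% CO2 to five tenfold doses from 1 to 10,000 nM in duplicate. ATP luminescence, normalised to vehicle and to a 10 µM positive control, was fitted with four parameters.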

[2] = system: BV-173; assay: cell viability (% survival relative to DMSO control, bortezomib = 0%); higher = less cytotoxic
Outline: (§1)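 Seeding density for each of the 10 AML and 5 CML cell lines was titrated to the linear growth range. Cells went into 384-well plates pre-printed in duplicate with compounds at 1, 10, 100, 1000 or 10000 nM and were held for 72 h at 37 °C with 5% CO2. CellTiter-Glo luminescence then provided the readout. Percent survival is expressed relative to vehicle at 100% and a 10 µM positive control at 0%, averaged over duplicates.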

[3] = system: HL-60; assay: as above
Outline: as §1

[4] = system: THP-1; assay: as above
Outline: as §1

[5] = system: HEL; assay: as above
Outline: as §1

[6] = system: ML-2; assay: as above
Outline: as §1

[7] = system: MOLM-13; assay: as above
Outline: as §1

[8] = system: KCL-22; assay: as above
Outline: as §1

[9] = system: SHI-1; assay: as above
Outline: as §1

[10] = system: NOMO-1; assay: as above
Outline: as §1

[11] = system: K-562; assay: as above
Outline: as §1

[12] = system: KG-1; assay: as above
Outline: as §1

[13] = system: KU-812; assay: as above
Outline: as §1

[14] = system: LAMA-84; assay: as above
Outline: as §1

[15] = system: Mono-Mac-6; assay: as above
Outline: as §1

[16] = system: MV4-11; assay: as above
Outline: as §1

[17] = system: HL-60; assay: cell viability (% survival relative to DMSO control); higher = less cytotoxic
Outline: (§2)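 A rescreen of the full library used HL-60 cells in RPMI 1640 with 10% FBS on 384-well plates, run in duplicate at five tenfold concentrations (1–10,000 nM). Each screen included DMSO or 100 nM of one of three metabolic inhibitors and ran 72 h at 37 °C, 5% CO2. CellTiter-Glo viability was scaled between DMSO and 10 μM proteasome-inhibitor wells. Any area under the curve comes from four-parameter log-logistic fits with drc and PharmacoGx.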

[18] = system: HL-60; assay: area under dose-response curve (viability, 1 nM-10 uM) (fraction (0-1)); higher = more sensitive
Outline: as §2

CCCCCCCNC=O [N-Heptyl-Formamide]
Details | IC50 (cell viability) [µM]
[1] | > 10

Details | area under dose-response curve, co-treatment: AZD3965 100 nM | area under dose-response curve, co-treatment: DMSO vehicle | area under dose-response curve, co-treatment: GSK2194069 100 nM | area under dose-response curve, co-treatment: pictilisib 100 nM | cell viability, 1 nM [%] | cell viability, 10 nM [%] | cell viability, 100 nM [%] | cell viability, 1000 nM [%] | cell viability, 10000 nM [%]
[2] | – | – | – | – | 112 | 98.3 | 90.4 | 123 | 95.5
[3] | – | – | – | – | 108 | 115 | 95.3 | 143 | 91.7
[4] | – | – | – | – | 110 | 97.1 | 97.1 | 104 | 96.7
[5] | – | – | – | – | 109 | 97.9 | 80.9 | 112 | 92.1
[6] | – | – | – | – | 121 | 106 | 88.8 | 117 | 90.9
[7] | – | – | – | – | 113 | 98.3 | 89.9 | 108 | 90.3
[8] | – | – | – | – | 101 | 109 | 90.1 | 113 | 98.8
[9] | – | – | – | – | 109 | 104 | 101 | 114 | 97.1
[10] | – | – | – | – | 110 | 96.7 | 100 | 113 | 93
[11] | – | – | – | – | 116 | 108 | 99 | 122 | 96.3
[12] | – | – | – | – | 99.6 | 110 | 86.4 | 108 | 95.5
[13] | – | – | – | – | 108 | 97.3 | 98.9 | 107 | 91.7
[14] | – | – | – | – | 101 | 99.3 | 104 | 112 | 98.1
[15] | – | – | – | – | 110 | 97.3 | 101 | 114 | 96.8
[16] | – | – | – | – | 106 | 105 | 93.7 | 105 | 94.4
[18] | < 0.0301 | < 0.0301 | < 0.0301 | < 0.0301 | – | – | – | – | –

cell viability [%], [17]
Details | 0.001 µM | 0.01 µM | 0.1 µM | 1 µM | 10 µM
co-treatment: AZD3965 100 nM | 104.63 ± 0.079 | 106 ± 12 | 98 ± 6.2 | 95 ± 12 | 97.3 ± 4.2
co-treatment: DMSO vehicle | 101.3 ± 0.22 | 78.3 ± 35 | 98.6 ± 5 | 97.7 ± 4.5 | 101 ± 2.9
co-treatment: GSK2194069 100 nM | 99.7 ± 2.1 | 103 ± 2.5 | 99.6 ± 2.1 | 97.7 ± 8.2 | 94 ± 2.8
co-treatment: pictilisib 100 nM | 99.8 ± 14 | 108 ± 15 | 78.6 ± 23 | 102 ± 4.4 | 100 ± 6.2

NC(CCC(=O)NC(CSCc1ccc(Br)cc1)C(=O)NCC(=O)OC1CCCC1)C(=O)OC1CCCC1 (centres undefined) [S-para-Bromobenzylglutathione cyclopentyl diester]
Details | IC50 (cell viability) [µM]
[1] | > 10

Details | area under dose-response curve, co-treatment: DMSO vehicle | area under dose-response curve, co-treatment: GSK2194069 100 nM | area under dose-response curve, co-treatment: pictilisib 100 nM | cell viability, 1 nM [%] | cell viability, 10 nM [%] | cell viability, 100 nM [%] | cell viability, 1000 nM [%] | cell viability, 10000 nM [%]
[2] | – | – | – | 96.5 | 88.3 | 97 | 77.1 | 28
[3] | – | – | – | 97.3 | 92.7 | 105 | 90 | 100
[4] | – | – | – | 103 | 97.5 | 96.8 | 101 | 92
[5] | – | – | – | 114 | 88.2 | 113 | 102 | 77
[6] | – | – | – | 102 | 87.1 | 105 | 105 | 8.21
[7] | – | – | – | 113 | 111 | 92.6 | 90 | 89.2
[8] | – | – | – | 103 | 97.9 | 104 | 111 | 98.3
[9] | – | – | – | 98.2 | 109 | 98.5 | 91.3 | 99.9
[10] | – | – | – | 98 | 98.1 | 97.4 | 97.8 | 95.8
[11] | – | – | – | 105 | 106 | 104 | 112 | 93.2
[12] | – | – | – | 145 | 102 | 49.9 | 43.4 | 105
[13] | – | – | – | 90.1 | 97.2 | 95.9 | 101 | 93.9
[14] | – | – | – | 101 | 110 | 93.3 | 98.2 | 98.9
[15] | – | – | – | 108 | 96.5 | 88.8 | 90.6 | 63.3
[16] | – | – | – | 109 | 89.3 | 106 | 98.7 | 93.4
[18] | < 0.0301 | < 0.0301 | 0.0772 | – | – | – | – | –

cell viability [%], [17]
Details | 0.001 µM | 0.01 µM | 0.1 µM | 1 µM | 10 µM
co-treatment: AZD3965 100 nM | 101 ± 4 | 98.9 ± 1.1 | 102 ± 3.9 | 91.1 ± 10 | 77.1 ± 6.2
co-treatment: DMSO vehicle | 102 ± 2.7 | 91.6 ± 11 | 106 ± 1.5 | 97.4 ± 3 | 94.4 ± 3.5
co-treatment: GSK2194069 100 nM | 104.2 ± 1 | 85.8 ± 36 | 110 ± 5.5 | 95 ± 9.2 | 87.2 ± 5.7
co-treatment: pictilisib 100 nM | 97.1 ± 9.2 | 87.5 ± 17 | 113 ± 9.7 | 76.7 ± 18 | 55.5 ± 3.4

NCc1ccc(S(N)(=O)=O)cc1 [4-Homosulfanilamide]
Details | IC50 (cell viability) [µM]
[1] | > 10

Details | area under dose-response curve, co-treatment: AZD3965 100 nM | area under dose-response curve, co-treatment: DMSO vehicle | area under dose-response curve, co-treatment: GSK2194069 100 nM | area under dose-response curve, co-treatment: pictilisib 100 nM | cell viability, 1 nM [%] | cell viability, 10 nM [%] | cell viability, 100 nM [%] | cell viability, 1000 nM [%] | cell viability, 10000 nM [%]
[2] | – | – | – | – | 96.7 | 85.9 | 91.7 | 96.6 | 97.6
[3] | – | – | – | – | 88.1 | 97 | 109 | 82.1 | 110
[4] | – | – | – | – | 98.5 | 92.5 | 105 | 96.2 | 99.5
[5] | – | – | – | – | 94.2 | 71.2 | 99.3 | 98 | 106
[6] | – | – | – | – | 90.9 | 92.3 | 94.7 | 91.8 | 102
[7] | – | – | – | – | 80.7 | 93.2 | 87.3 | 80 | 105
[8] | – | – | – | – | 99.7 | 107 | 103 | 103 | 106
[9] | – | – | – | – | 96.8 | 107 | 104 | 102 | 111
[10] | – | – | – | – | 97 | 96.1 | 98.3 | 99.8 | 100
[11] | – | – | – | – | 85.1 | 90 | 87.5 | 104 | 102
[12] | – | – | – | – | 91.4 | 96 | 97.7 | 99.1 | 96.6
[13] | – | – | – | – | 97.9 | 93.1 | 96.3 | 100 | 98.1
[14] | – | – | – | – | 99.5 | 97.7 | 94.7 | 99.3 | 100
[15] | – | – | – | – | 107 | 101 | 106 | 96 | 92.3
[16] | – | – | – | – | 93.9 | 87.5 | 90.2 | 89.9 | 106
[18] | < 0.0301 | < 0.0301 | < 0.0301 | < 0.0301 | – | – | – | – | –

cell viability [%], [17]
Details | 0.001 µM | 0.01 µM | 0.1 µM | 1 µM | 10 µM
co-treatment: AZD3965 100 nM | 102 ± 3.3 | 106 ± 5.2 | 99.06 ± 0.68 | 95.9 ± 1.2 | 99.2 ± 4.8
co-treatment: DMSO vehicle | 103.6 ± 0.27 | 105 ± 4.4 | 100 ± 3.1 | 101 ± 2.8 | 96.4 ± 2
co-treatment: GSK2194069 100 nM | 101 ± 4.4 | 103 ± 6.2 | 98.5 ± 5.5 | 96.9 ± 4.6 | 97.5 ± 5.8
co-treatment: pictilisib 100 nM | 98.6 ± 3.8 | 107 ± 3.1 | 97.5 ± 1.2 | 95.5 ± 8.2 | 98.3 ± 6.2
